Test results taken from patent publication US10647675B2 (priority 2015, dated 2020).
≈ marks a conversion by molar mass, not a printed value.

Assays:
[1] = tested on: Trichophyton mentagrophytes SM-110; assay: Antifungal activity evaluation test: minimum inhibitory concentration (MIC), broth dilution by reference to CLSI M38-A2; type: cell-based; conditions: SM110, read-out: MIC (T. menta.)
Summary of the method: (§1)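 Broth microdilution after CLSI M38-A2: 2-fold DMSO dilution series in MOPS-buffered RPMI 1640 pH 7.0, inoculum 2×10^3 cells/mL final. Incubated 35° C for 4 days; MIC (μg/mL) is lowest concentration giving visually ≥80% growth inhibition versus growth control.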

[2] = tested on: Trichophyton rubrum KD-1130; assay: as above; type: cell-based; conditions: KD1130, read-out: MIC (T. rubrum)
Summary of the method: as §1

| Structure (SMILES) | MIC [1] [µg/mL] | MIC [2] [µg/mL] |
| --- | --- | --- |
| Cc1nn2c(c1-c1cccnc1Oc1ccc(C(F)(F)F)cc1)OCCCC2 [I-233, 2-methyl-3-{2-[4-(trifluoromethyl)phenoxy]pyridin-3-yl}-5,6,7,8-tetrahydropyrazolo[1,5-b][1,3]oxazepine] | 0.2 to 0.78 (≈ 0.514 to 2 µM) | 0.2 to 0.78 (≈ 0.514 to 2 µM) |
| COc1ccncc1-c1cccnc1Oc1ccc(C2CC2)nc1 [I-133, 2-[(6-cyclopropylpyridin-3-yl)oxy]-4′-methoxy-3,3′-bipyridine] | 1.56 to 6.25 (≈ 4.88 to 19.6 µM) | 1.56 to 6.25 (≈ 4.88 to 19.6 µM) |
| COc1ccccc1-c1cccnc1Sc1ccc(C(F)(F)F)cc1 [I-436, 3-(2-methoxyphenyl)-2-{[4-(trifluoromethyl)phenyl]thio}pyridine] | ≤ 0.1 | ≤ 0.1 |
| COc1ccncc1-c1cccnc1Oc1ccc(OC(F)(F)F)cc1 [I-237, 4′-methoxy-2-[4-(trifluoromethoxy)phenoxy]-3,3′-bipyridine] | ≤ 0.1 | ≤ 0.1 |
| CCC(=O)OCCc1ccc(Oc2ncccc2-c2cnccc2OC)cc1 [I-278, 4-{[4′-methoxy-3,3′-bipyridin)-2-yl]oxy}phenethyl propionate] | 0.2 to 0.78 (≈ 0.529 to 2.06 µM) | 0.2 to 0.78 (≈ 0.529 to 2.06 µM) |
| COCC(F)(F)c1ccc(Oc2ncccc2-c2cc(F)cc3nccnc23)cn1 [I-170, 5-(2-{[6-(1,1-difluoro-2-methoxyethyl)pyridin-3-yl]oxy}pyridin-3-yl)-7-fluoroquinoxaline] | 0.2 to 0.78 (≈ 0.485 to 1.89 µM) | 0.2 to 0.78 (≈ 0.485 to 1.89 µM) |
| C#Cc1ccc(Oc2ncccc2-c2cccnc2OC)cc1 [I-390, 2-(4-ethynylphenoxy)-2′-methoxy-3,3′-bipyridine] | ≤ 0.1 | ≤ 0.1 |
| CC(F)(F)c1ccc(Oc2ncccc2-c2cccc3ocnc23)cn1 [I-113, 4-(2-{[6-(1,1-difluoroethyl)pyridin-3-yl]oxy}-3-yl)benzo[d]oxazole] | ≤ 0.1 | 0.2 to 0.78 (≈ 0.566 to 2.21 µM) |
| FC(F)(F)c1ccc(Nc2ncncc2-c2cccc3ccnn23)cc1 [I-362, 5-(pyrazolo[1,5-a]pyridin-7-yl)-N-[4-(trifluoromethyl)phenyl]pyrimidin-4-amine] | ≤ 0.1 | ≤ 0.1 |
| CCOc1ccccc1-c1cccnc1Oc1ccc(C(F)(F)F)nc1 [I-17, 3-(2-ethoxyphenyl)-2-{[6-(trifluoromethyl)pyridin-3-yl]oxy}pyridine] | 0.2 to 0.78 (≈ 0.555 to 2.16 µM) | 0.2 to 0.78 (≈ 0.555 to 2.16 µM) |
| COc1ncccc1-c1cccnc1Oc1cnc(N(C)Cc2ccccc2)nc1 [I-381, N-benzyl-5-{[2′-methoxy-(3,3′-bipyridin)-2-yl]oxy}-N-methylpyrimidin-2-amine] | ≤ 0.1 | ≤ 0.1 |
| COc1ccncc1-c1cccnc1Oc1ccc(C(F)(F)F)nc1 [I-28, 4′-methoxy-2-{[6-(trifluoromethyl)pyridin-3-yl]oxy}-3,3′-bipyridine] | 0.2 to 0.78 (≈ 0.576 to 2.25 µM) | 0.2 to 0.78 (≈ 0.576 to 2.25 µM) |
| COc1ccc(F)cc1-c1cccnc1Oc1ccc(C(F)(F)F)nc1 [I-11, 3-(5-fluoro-2-methoxyphenyl)-2-{[6-(trifluoromethyl)pyridin-3-yl]oxy}pyridine] | ≤ 0.1 | ≤ 0.1 |
| CCCSc1ncc(Oc2ncccc2-c2ccc(F)cc2OC)cn1 [I-186, 2-(propylthio)-5-{[3-(4-fluoro-2-methoxyphenyl)pyridin-2-yl]oxy}-pyrimidine] | ≤ 0.1 | ≤ 0.1 |
| COc1cccc(-c2cccnc2Oc2ccc(C(C)(F)F)nc2)n1 [I-95, 2′-{[6-(1,1-difluoroethyl)pyridin-3-yl]oxy}-6-methoxy-2,3′-bipyridine] | 0.2 to 0.78 (≈ 0.583 to 2.27 µM) | 0.2 to 0.78 (≈ 0.583 to 2.27 µM) |
| COc1ncc(Cl)cc1-c1cccnc1Oc1ccc(C(F)(F)F)nc1 [I-31, 5-chloro-2-methoxy-2′-{[6-(trifluoromethyl)pyridin-3-yl]oxy}-3,3′-bipyridine] | ≤ 0.1 | ≤ 0.1 |
| COc1c(Cl)cncc1-c1cccnc1Oc1ccc(C(F)F)cc1 [I-355, 5′-chloro-2-[4-(difluoromethyl)phenoxy]-4′-methoxy-3,3′-bipyridine] | ≤ 0.1 | ≤ 0.1 |
| COc1cc(F)ccc1-c1cccnc1Oc1cnc(CCc2cnn(C)c2)nc1 [I-198, 5-{[3-(4-fluoro-2-methoxyphenyl)pyridin-2-yl]oxy}-2-[2-(1-methyl-1H-pyrazol-4-yl)ethyl]pyrimidine] | 0.2 to 0.78 (≈ 0.493 to 1.92 µM) | 0.2 to 0.78 (≈ 0.493 to 1.92 µM) |
| COCC(F)(F)c1ccc(Oc2ncccc2-c2cc(F)ccc2OC)cn1 [I-162, 2-{[6-(1,1-difluoro-2-methoxyethyl)pyridin-3-yl]oxy}-3-(5-fluoro-2-methoxyphenyl)pyridine] | ≤ 0.1 | ≤ 0.1 |
| COc1ncc(Cl)cc1-c1cccnc1Oc1cnc(C(F)(F)F)nc1 [I-180, 5-chloro-2-methoxy-2′-{[2-(trifluoromethyl)pyrimidin-5-yl]oxy}-3,3′-bipyridine] | ≤ 0.1 | ≤ 0.1 |
| FC(F)(F)Oc1ccccc1-c1cccnc1Oc1ccc(C(F)(F)F)nc1 [I-21, 3-(2-trifluoromethoxyphenyl)-2-{[6-(trifluoromethyl)pyridin-3-yl]oxy}pyridine] | 0.2 to 0.78 (≈ 0.5 to 1.95 µM) | 0.2 to 0.78 (≈ 0.5 to 1.95 µM) |
| COc1cccc(-c2cccnc2Oc2ccc(C(F)(F)F)nc2)c1 [I-2, 3-(3-methoxyphenyl)-2-{[6-(trifluoromethyl)pyridin-3-yl]oxy}pyridine] | ≤ 0.1 | ≤ 0.1 |
| COc1ccncc1-c1cccnc1Oc1ccc(C)c(C)c1 [I-262, 2-(3,4-dimethylphenoxy)-4′-methoxy-3,3′-bipyridine] | 0.2 to 0.78 (≈ 0.653 to 2.55 µM) | 0.2 to 0.78 (≈ 0.653 to 2.55 µM) |

| Structure (SMILES) | MIC [1] [µg/mL] | MIC [2] [µg/mL] |
| --- | --- | --- |
| FC(F)(F)c1ccc(Oc2ncccc2-c2cccc3c2OCCC3)cn1 [I-38, 3-(chroman-8-yl)-2-{[6-(trifluoromethyl)pyridin-3-yl]oxy}pyridine] | ≤ 0.1 | ≤ 0.1 |
| FC(F)(F)c1ccc(Oc2ncccc2-c2ccccc2C2CC2)cn1 [I-59, 3-(2-cyclopropylphenyl)-2-{[6-(trifluoromethyl)pyridin-3-yl]oxy}pryidine] | 0.2 to 0.78 (≈ 0.561 to 2.19 µM) | 0.2 to 0.78 (≈ 0.561 to 2.19 µM) |
| COc1cc(F)ccc1-c1cccnc1Oc1cnc(N(C)CC#N)nc1 [I-189] | 0.2 to 0.78 (≈ 0.547 to 2.13 µM) | 0.2 to 0.78 (≈ 0.547 to 2.13 µM) |
| Cc1c(F)cncc1-c1cccnc1Oc1ccc(C(C)(F)F)nc1 [I-99, 2-{[6-(1,1-difluoroethyl)pyridin-3-yl]oxy}-5′-fluoro-4′-methyl-3,3′-bipyridine] | 0.2 to 0.78 (≈ 0.579 to 2.26 µM) | 0.2 to 0.78 (≈ 0.579 to 2.26 µM) |
| COCC(F)(F)c1ccc(Oc2ncccc2-c2cccc3ncnn23)cn1 [I-343, 5-(2-{[6-(1,1-difluoro-2-methoxyethyl)pyridin-3-yl]oxy}pyridin-3-yl)-[1,2,4]triazolo[1,5-a]pyridine] | 0.2 to 0.78 (≈ 0.522 to 2.03 µM) | 0.2 to 0.78 (≈ 0.522 to 2.03 µM) |
| COc1nccnc1-c1cccnc1Oc1ccc(C(F)(F)F)cc1 [I-218, 2-methoxy-3-{2-[4-(trifluoromethyl)phenoxy]pyridin-3-yl}pyrazine] | ≤ 0.1 | ≤ 0.1 |
| CC(F)(F)c1ccc(Oc2ncccc2-c2cccnc2N2CCCC2)cn1 [I-105] | 1.56 to 6.25 (≈ 4.08 to 16.3 µM) | 1.56 to 6.25 (≈ 4.08 to 16.3 µM) |
| COc1ccncc1-c1nccnc1Oc1ccc2c(c1)CCCC2 [I-317, 2-(4-methoxypyridin-3-yl)-3-[(5,6,7,8-tetrahydronaphthalen-2-yl)oxy]pyrazine] | ≤ 0.1 | ≤ 0.1 |
| COCc1ccccc1-c1cccnc1Oc1ccc(C(F)(F)F)nc1 [I-60] | 0.2 to 0.78 (≈ 0.555 to 2.16 µM) | 0.2 to 0.78 (≈ 0.555 to 2.16 µM) |
| COc1ccncc1-c1cccnc1Oc1ccc(S(F)(F)(F)(F)F)cc1 [I-240, 4′-methoxy-2-[4-(pentafluorosulfanyl)phenoxy]-3,3′-bipyridine] | ≤ 0.1 | ≤ 0.1 |
| FC(F)(F)c1ccc(Oc2ncccc2-c2cccc3c2OCC3)cn1 [I-35, 3-(2,3-dihydrobenzofuran-7-yl)-2-{[6-(trifluoromethyl)pyridin-3-yl]oxy}pyridine] | ≤ 0.1 | ≤ 0.1 |
| CCOC(=O)c1ccc(Oc2ncccc2-c2cnccc2OC)cc1 [I-245] | ≤ 0.1 | ≤ 0.1 |
| CCCN(C)c1ncc(Oc2ncccc2-c2cc(Cl)cnc2OC)cn1 [I-452] | ≤ 0.1 | ≤ 0.1 |
| CCc1ccc(Oc2ncccc2-c2cnccc2OC)cc1 [I-253, 2-(4-ethylphenoxy)-4′-methoxy-3,3′-bipyridine] | ≤ 0.1 | ≤ 0.1 |
| CCN(C)CC(F)(F)c1ccc(Oc2ncccc2-c2ccccc2OC)cn1 [I-149, N-ethyl-2,2-difluoro-2-(5-{[3-(2-methoxyphenyl)pyridin-2-yl]oxy}-pyridin-2-yl)-N-methylethanamine] | 0.2 to 0.78 (≈ 0.501 to 1.95 µM) | 0.2 to 0.78 (≈ 0.501 to 1.95 µM) |
| COc1cc(F)c(F)cc1-c1cncnc1Oc1ccc(C(C)(F)F)nc1 [I-336, 4-{[6-(1,1-difluoroethyl)pyridin-3-yl]oxy}-5-(4,5-difluoro-2-methoxyphenyl)pyrimidine] | ≤ 0.1 | ≤ 0.1 |
| COCC(C)(C)c1ccc(Oc2ncccc2-c2cnccc2OC)cc1 [I-275, 4′-methoxy-2-[4-(1-methoxy-2-methylpropan-2-yl)phenoxy]-3,3′-bipyridine] | 0.2 to 0.78 (≈ 0.549 to 2.14 µM) | 0.2 to 0.78 (≈ 0.549 to 2.14 µM) |
| CCc1ccc(Oc2ncccc2-c2cnccc2OC)cc1F [I-392, 2-(4-ethyl-3-fluorophenoxy)-4′-methoxy-3,3′-bipyridine] | ≤ 0.1 | ≤ 0.1 |
| COc1cnccc1-c1cccnc1Oc1ccc(C(C)(F)F)nc1 [I-89, 2-{[6-(1,1-difluoroethyl)pyridin-3-yl]oxy}-3′-methoxy-3,4′-bipyridine] | 0.2 to 0.78 (≈ 0.583 to 2.27 µM) | 0.2 to 0.78 (≈ 0.583 to 2.27 µM) |
| COc1ccccc1-c1cccnc1Oc1ccc(C(C)(F)F)nc1 [I-81, 2-{[6-(1,1-difluoroethyl)pyridin-3-yl]oxy}-3-(2-methoxyphenyl)pyridine] | ≤ 0.1 | ≤ 0.1 |
| COCC(F)(F)c1ccc(Oc2ncncc2-c2cccnc2OC)cn1 [I-361, 4-{[6-(1,1-difluoro-2-methoxyethyl)pyridin-3-yl]oxy}-5-(2-methoxypyridin-3-yl)pyrimidine] | 0.2 to 0.78 (≈ 0.534 to 2.08 µM) | 0.2 to 0.78 (≈ 0.534 to 2.08 µM) |
| CNCC(F)(F)c1ccc(Oc2ncccc2-c2ccccc2OC)cn1 [I-146, 2,2-difluoro-2-(5-{[3-(2-methoxyphenyl)pyridin-2-yl]oxy}-pyridin-2-yl)-N-methylethanamine] | 0.2 to 0.78 (≈ 0.539 to 2.1 µM) | 1.56 to 6.25 (≈ 4.2 to 16.8 µM) |
